Experimental data reported in patent publication US20220348590A1, “CYCLOOXYGENASE-2 INHIBITORS AND USES THEREOF” (The Board Institute, Inc., priority 2019, published 2022).
pIC50: −log10 of the molar value. Like-named read-outs stand apart in the source and are kept apart here.

Key:
[1] = Rat Plasma Protein Stability (% Remaining); assay type: in vitro ADME; settings: average
[2] = mouse plasma protein binding (PPB) assay; assay type: in vitro ADME; settings: average, read-out: Mouse Plasma Protein Binding % Bound Avg (converted)
Protocol: (§1) We have adapted a previously reported cyclooxygenase enzymatic assay utilizing LCMS quantification of PGE2 as the product of COX-1 and COX2 catalyzed conversion of arachidonic acid to evaluate the binding properties of newly synthesized ligands [Cao, 2011]. These optimized and miniaturized (384-well plates) LCMS-based COX-1 and COX2 enzymatic assays enabled us to quickly evaluate newly synthesized ligands for COX2 binding affinity and selectivity vs COX-1. Using a shorter ligand-enzyme incubation time in the LCMS assay (2 minutes vs 10 minutes) also permitted us to prioritize ligands with faster binding kinetics. Considering the relatively slow on-rate kinetics of known coxibs, due to their 3-step binding mechanism [Marnett, 2009], we believe that optimizing this critical parameter will be key to the successful development of a COX2 PET tracer. Using these enzymatic assays, we have evaluated>200 newly synthesized ligands against COX2 and >20 ligands against COX-1. Another critical property necessary for a good PET radiotracer is to have low non-specific binding (NSB) to increase the free fraction and maximize the signal to noise ratio. This property can be evaluated using in-vitro protein binding assays, and we have now evaluated>50 newly synthesized ligands in mouse, rat and human plasma protein binding (PPB) assays as well as >15 ligands in a mouse brain protein binding (BPB) assay.

ovine COX-1 (oCOX-1) = molecular target: T1, ovine COX-1 (oCOX-1) (Ovis aries, UniProt P05979); test: LCMS-based COX-1 enzymatic inhibition assay (PGE2 quantification); assay type: biochemical; settings: for COX1 10 minutes pge2/pge2d4 area ratio Avg. LLE / COX1 10 minutes pge2 area (counts) Avg. LLE: average LLE
T1 construct: purchased Cayman Chemicals (Ann Arbor, Mich.)
T1 sequence (P05979 25-600): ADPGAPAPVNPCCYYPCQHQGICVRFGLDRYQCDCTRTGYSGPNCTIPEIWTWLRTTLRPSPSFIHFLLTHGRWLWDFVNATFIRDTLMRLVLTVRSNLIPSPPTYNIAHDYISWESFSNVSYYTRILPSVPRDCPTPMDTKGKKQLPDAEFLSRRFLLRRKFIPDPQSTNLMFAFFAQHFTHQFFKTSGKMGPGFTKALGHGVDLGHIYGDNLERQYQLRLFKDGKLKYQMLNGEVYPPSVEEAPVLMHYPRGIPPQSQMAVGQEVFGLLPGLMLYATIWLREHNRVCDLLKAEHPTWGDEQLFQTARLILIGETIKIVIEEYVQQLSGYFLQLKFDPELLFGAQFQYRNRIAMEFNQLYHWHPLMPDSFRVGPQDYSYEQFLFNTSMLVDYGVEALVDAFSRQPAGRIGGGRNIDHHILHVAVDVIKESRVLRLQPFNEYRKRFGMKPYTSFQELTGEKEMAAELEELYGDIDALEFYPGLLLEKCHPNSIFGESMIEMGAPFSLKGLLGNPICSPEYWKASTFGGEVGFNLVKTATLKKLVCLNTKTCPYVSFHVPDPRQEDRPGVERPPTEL
Summary of the method: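 Ovine COX-1 (0.1 μg) or human recombinant COX2 (0.2 μg) in 100 mM Tris.HCl pH 8.0 with hematin and epinephrine, preincubated with inhibitor 10 min at 37 °C. Reaction with 5 μM arachidonic acid stopped after 2 min with HCl; PGE2 quantified by LC-MS-MS. IC50 from 12 concentrations in triplicate.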

[3] = Human Plasma Protein Stability (% Remaining); assay type: in vitro ADME; settings: average
[4] = human plasma protein binding (PPB) assay; assay type: in vitro ADME; settings: average, read-out: Human Plasma Protein Binding % Bound Avg (converted)
Protocol: as §1

[5] = rat plasma protein binding (PPB) assay; assay type: in vitro ADME; settings: average, read-out: Rat Plasma Protein Binding % Bound Avg (converted)
Summary of the method: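 Non-specific binding is assessed by in vitro protein binding experiments that yield the free fraction. Species and matrix differ by assay: mouse brain for BPB, and mouse, rat and human plasma for PPB.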

[6] = Mouse Plasma Protein Stability (% Remaining); assay type: in vitro ADME; settings: average
Rat Microsome Stability = assay type: in vitro ADME; settings: rat microsomes
[7] = mouse brain protein binding (BPB) assay; assay type: in vitro ADME
Protocol: as §1

MDR1 = test: MDR1-MDCKII permeability and efflux; assay type: in vitro ADME; settings: dog, MDCK-MDR1; for Papp A→B: read-out: MDR1-MCKII Papp A-B; for Papp B→A: read-out: MDR1-MCKII Papp B-A
[8] = 10 minutes, readout pge2/pge2d4 area ratio
[9] = 10 minutes, readout pge2/pge2d4 area ratio, average, read-out: COX1 10 minutes pge2/pge2d4 area ratio Avg. IC50
[10] = 10 minutes, readout pge2 area (counts)
[11] = 10 minutes, readout pge2 area (counts), average, read-out: COX1 10 minutes pge2 area (counts) Avg. IC50

SMILES	Rat Plasma Protein Stability % Remaining Avg [1] [%]	fraction unbound [2]	COX1 10 minutes pge2/pge2d4 area ratio Avg. LLE (ovine COX-1 (oCOX-1); [8])	pIC50 (ovine COX-1 (oCOX-1); [9])	COX1 10 minutes pge2 area (counts) Avg. LLE (ovine COX-1 (oCOX-1); [10])	pIC50 (ovine COX-1 (oCOX-1); [11])	Human Plasma Protein Stability % Remaining Avg [3] [%]	fraction unbound [4]	fraction unbound [5]	Mouse Plasma Protein Stability % Remaining Avg [6] [%]	Rat Microsome Stability % Remaining Avg (Rat Microsome Stability) [%]	fraction unbound [7]	pIC50 (ovine COX-1 (oCOX-1))	efflux ratio (MDR1)	Papp A→B (MDR1) [×10⁻⁶ cm/s]	Papp B→A (MDR1) [×10⁻⁶ cm/s]
CS(=O)(=O)c1ccc(-c2cncc(OCc3cccs3)n2)cc1 [Compound 19]	91.1	0.02	2.582	4.98	2.539	4.96	92.4	0.015	0.015	92.8	–	–	–	–	–	–
COc1cc(NCc2cccs2)nc(-c2ccc(S(C)(=O)=O)cc2)c1 [Compound 50]	–	0.031	1.091	4.49	0.9785	4.38	–	–	–	98.9	–	–	–	–	–	–
CS(=O)(=O)c1ccc(-c2cccc(OCc3ccoc3)n2)cc1 [Compound 16]	97.9	0.011	1.139	4.40	1.072	4.33	121	0.049	0.031	102	–	–	–	–	–	–
CS(=O)(=O)c1ccc(-c2cc(F)cc(NCc3ccco3)n2)cc1 [Compound 14]	104	0.022	1.4251	4.40	1.516	4.49	118	0.02	0.024	99	–	–	–	–	–	–
COc1ccc(NCc2cccs2)nc1-c1ccc(S(C)(=O)=O)cc1 [Compound 17]	100	0.033	–	–	0.884	–	95	0.022	0.047	102	0.2	0.012	–	–	–	–
CS(=O)(=O)c1ccc(-c2nc(NCc3cccs3)cc3ccoc23)cc1 [Compound 2]	98	0.004	−0.046	–	−0.02512	4.30	99	0.003	0.009	108	–	–	4.28	–	–	–
CS(=O)(=O)c1ccc(-c2cccc(NCc3ccc(F)o3)n2)cc1 [Compound 23]	104	–	3.122	6.49	3.085	6.38	97	0.028	0.046	–	–	–	–	–	–	–
CS(=O)(=O)c1ccc(-c2ccc(F)c(NCc3ccco3)n2)cc1 [Compound 15]	127	–	1.314	–	1.404	4.46	108	0.022	0.02	–	–	–	4.28	–	–	–
CS(=O)(=O)c1ccc(-c2cccc(OCc3cccs3)n2)cc1 [Compound 1, 2-(4-methanesulfonylphenyl)-6-[(thiophen-2-yl)methoxy]pyridine]	100	0.004	1.251	4.94	1.136	4.86	94	0.002	0.006	119.5	–	–	–	0.9	33.7	29.9
COc1ncc(NCc2cccs2)nc1-c1ccc(S(C)(=O)=O)cc1 [Compound 29]	114.5	0.025	1.794	–	3.31	7.32	93.9	0.016	0.019	93.2	2.2	–	4.28	–	–	–
CS(=O)(=O)c1ccc(-c2cccc(NCc3cccs3)n2)cc1 [Compound 24]	105.1	0.016	–	4.46	–	4.48	100	0.019	0.025	114.1	6.9	–	–	–	–	–
CS(=O)(=O)c1ccc(-c2ccc(F)c(NCc3ccoc3)n2)cc1 [Compound 33]	128	–	1.418	4.48	1.362	4.42	100	0.029	0.025	–	–	–	–	–	–	–
CS(=O)(=O)c1ccc(-c2cc(F)cc(NCc3ccoc3)n2)cc1 [Compound 34]	115	–	1.4613	4.52	1.484	4.54	100	0.027	0.025	–	–	–	–	–	–	–
Cc1occc1CNc1cccc(-c2ccc(S(C)(=O)=O)cc2)n1 [Compound 21]	100	–	1.391	4.54	1.134	–	99	0.026	0.042	–	–	–	–	–	–	–
CS(=O)(=O)c1ccc(-c2cccc(/C=C\c3ccoc3)n2)cc1 [Compound 35, 2-[(Z)-2-(furan-3-yl)ethenyl]-6-(4-methanesulfonylphenyl)pyr]	94.1	0.079	1.089	4.65	0.724	–	97	0.024	0.052	99.2	–	0.011	–	–	–	–
COc1ncc(NCc2ccoc2)nc1-c1ccc(S(C)(=O)=O)cc1 [Compound 44]	104.6	0.045	2.274	–	2.41	4.42	–	–	0.044	105.7	5.3	–	4.28	1.2	39.6	47.2
